Measurements reported in patent publication US5556856A, “Phthalazinone derivatives that modulate multi-drug resistance” (Asta Medica Aktiengesellschaft, priority 1992, dated 1996).
Where two headings read alike, the source gives them in different places.

Key:
right anterior free wall = assay: Antiarrhythmic properties in rabbit cardiac preparations, right anterior free wall; settings: Oryctolagus cuniculus, 1 h, 60 minutes, read-out: Electrical threshold, change in percentage from control
Experimental: (§1) The antiarrhythmic effect was tested by the following experimental procedure:
(§2) Twenty young rabbits of mixed breed and either sex, weighing 1475±75 g (mean±S.E.), were used. The animals were sacrificed by a blow on the head, their heart was isolated and the left atrium, a strip of the anterior free wall of the right ventricle, as well as one of the papillary muscles of the right ventricle were dissected and pinned to the bottom (`non-toxic` rubber) of a thermostated organic bath, containing modified Locke's solution. The composition of the solution was the following: Na^+ 140; K^+ 5.63; Ca^2+ 2.17; glucose 11, HCO3 25; CL 125; total 309 mmol/l, pH 7.4. Continuous stirring and oxygenation of the solution were maintained by the bubbling of a mixture of 95% O2 and 5% CO2. The temperature of the organ bath was kept at 32° C. […] During the experiments the following electro-physiological parameters were determined: electrical threshold, effective refractory period and conduction time. The effective refractory period (i.e. the least interval between two successive electro-mechanical responses) was measured by applying a threefold-threshold test stimulus (1 msec, square waves) delivered from a DISA Multistim at various times following the pacing impulse. Conduction time was measured on an oscilloscope (Tektronis 2230) as a distance (i.e. time) between the artifact of the pacing stimulus and the appearance of the subsequent surface potential recorded via bipolar platinum electrodes. The auxotonically measured contractility (maximum contractile force) was also followed (papillary muscle, left atrium).
(§3) After a 60 min equilibrium in the control solution, the preparations were exposed to 10 μM of the test substance for a period of 60 min. Except for the effect on the effective refractory periods (determined at the 30th and 60th min only) all the other parameters were measured in every 15th min, i.e. four times in the presence of a given concentration of the compound examined. […]

[1] = tested on: right anteior papillary muscle; assay: Antiarrhythmic properties in rabbit cardiac preparations, right anterior papillary muscle (conduction time); settings: Oryctolagus cuniculus, 1 h, 60 minutes, read-out: Conduction time, change in percentage from control
Experimental: as §1, §2, §3

left atrial myocardium = assay: Antiarrhythmic properties in rabbit cardiac preparations, left atrial myocardium; settings: Oryctolagus cuniculus, 1 h, 60 minutes; for activation at 10 µM: left atrial myocardium; for inhibition at 10 µM: left auricle, read-out: Contractility, change in percentage from control
Experimental: as §1
(§4) Twenty young rabbits of mixed breed and either sex, weighing 1475±75 g (mean±S.E.), were used. The animals were sacrificed by a blow on the head, their heart was isolated and the left atrium, a strip of the anterior free wall of the right ventricle, as well as one of the papillary muscles of the right ventricle were dissected and pinned to the bottom (`non-toxic` rubber) of a thermostated organic bath, containing modified Locke's solution. The composition of the solution was the following: Na^+ 140; K^+ 5.63; Ca^2+ 2.17; glucose 11, HCO3 25; CL 125; total 309 mmol/l, pH 7.4. Continuous stirring and oxygenation of the solution were maintained by the bubbling of a mixture of 95% O2 and 5% CO2. The temperature of the organ bath was kept at 32° C. The isolated left atrium, papillary muscle and the strip prepared from the anterior free wall of the right ventricle were electrically paced by rectangular electric impulses of 1 msec duration, twice-threshold intensity and a 100 per min frequency. During the experiments the following electro-physiological parameters were determined: electrical threshold, effective refractory period and conduction time. The effective refractory period (i.e. the least interval between two successive electro-mechanical responses) was measured by applying a threefold-threshold test stimulus (1 msec, square waves) delivered from a DISA Multistim at various times following the pacing impulse. Conduction time was measured on an oscilloscope (Tektronis 2230) as a distance (i.e. time) between the artifact of the pacing stimulus and the appearance of the subsequent surface potential recorded via bipolar platinum electrodes. The auxotonically measured contractility (maximum contractile force) was also followed (papillary muscle, left atrium).
(§5) After a 60 min equilibrium in the control solution, the preparations were exposed to 10 μM of the test substance for a period of 60 min. Except for the effect on the effective refractory periods (determined at the 30th and 60th min only) all the other parameters were measured in every 15th min, i.e. four times in the presence of a given concentration of the compound examined.
(§6) The values given in the Tables and Figures are means ±S.E. The effect of compounds on the various parameters was estimated statistically by the t-test (Student-Welch); P values<0.05 were regarded as significant.
(§7) Antiarrhythmic properties in rabbit cardiac
(§8) incubation time with drugs 60 minutes
(§9) change in percentage from control

[2] = tested on: right ventricular papillary muscle; assay: Antiarrhythmic properties in rabbit cardiac preparations, right ventricular papillary muscle; settings: Oryctolagus cuniculus, 1 h, 60 minutes; for inhibition at 10 µM: papillary muscle, read-out: Contractility, change in percentage from control; for activation at 10 µM: right ventricular papillary muscle
Experimental: as §1, §4, §5, §6, §7, §8, §9

inflammation pain = assay: Randall-Selitto inflammation pain test (IRS); format: in vivo; settings: rat; for Analgesic effect in test model IRS: 10 mg/kg p.o.; for ED50: po, read-out: Analgesic effect in test model IRS, ED50
Experimental: (§10) The peripheral analgesic effect was shown in the model of the Writhing Test (IWRAC) and in the model of the Randall-Selitto inflammation pain test (IRS).
^b IRS = RandallSelitto inflammation pain test. Data in % refer to a
dose or 10 mg/kg p.o. (rat). The ED50 values are given in mg/kg.

[3] = tested on: acetic acid induced writhing; assay: Acetic acid induced Writhing Test (IWRAC); format: in vivo; settings: mouse; for Analgesic effect in test model IWRAC: 6 mg/kg p.o.; for ED50: po, read-out: Analgesic effect in test model IWRAC, ED50
Experimental: as §10
^a IWRAC = Acetic acid induced Writhing Test. Data in % refer to a
dose of 6 mg/kg p.o. (mouse). The ED50 values are given in mg/kg.

[4] = read-out: Conduction time, change in percentage from control
[5] = read-out: Effective refractory period, change in percentage from control
[6] = read-out: Electrical threshold, change in percentage from control

Question: With CN1[C@@H]2CC[C@H]1C[C@@H](OC(=O)c1c[nH]c3ccccc13)C2 [ICS-205930] as the compound, how does the activation at 10 µM (right anterior free wall) read?
Answer: Its activation at 10 µM is 51%.

Question: And the activation at 10 µM [1]?
Answer: The activation at 10 µM was 111%.

Question: And the activation at 10 µM (left atrial myocardium; [4])?
Answer: The activation at 10 µM was 57%.

Question: And the activation at 10 µM (left atrial myocardium; [5])?
Answer: Its activation at 10 µM is 26%.

Question: What about the activation at 10 µM (left atrial myocardium; [6]) of the same compound?
Answer: Its activation at 10 µM is 51%.

Question: What about the inhibition at 10 µM (left atrial myocardium) of the same compound?
Answer: Its inhibition at 10 µM is 33%.

Question: What about the inhibition at 10 µM [2] of the same compound?
Answer: The inhibition at 10 µM was 29%.

Question: What about the activation at 10 µM [2, 5] of the same compound?
Answer: Its activation at 10 µM is 21%.

Question: What about the activation at 10 µM [2, 6] of the same compound?
Answer: Its activation at 10 µM is 34%.

Question: Which activation at 10 µM (right anterior free wall) does the source give for O=c1c2ccccc2c(Cc2ccc(F)cc2)nn1C1CCCN(CCc2ccccc2)CC1 (racemic) [D-18024] here?
Answer: The activation at 10 µM was -1%.

Question: And the activation at 10 µM [1]?
Answer: The activation at 10 µM was 103%.

Question: And the activation at 10 µM (left atrial myocardium; [4])?
Answer: The activation at 10 µM was 91%.

Question: What about the activation at 10 µM (left atrial myocardium; [5]) of the same compound?
Answer: Its activation at 10 µM is 66%.

Question: What about the activation at 10 µM (left atrial myocardium; [6]) of the same compound?
Answer: Its activation at 10 µM is 12%.

Question: What about the inhibition at 10 µM (left atrial myocardium) of the same compound?
Answer: The inhibition at 10 µM was 39%.

Question: What about the inhibition at 10 µM [2] of the same compound?
Answer: The inhibition at 10 µM was 48%.

Question: And the activation at 10 µM [2, 5]?
Answer: The activation at 10 µM was 7%.

Question: What about the activation at 10 µM [2, 6] of the same compound?
Answer: Its activation at 10 µM is 29%.

Question: CN1CCCC(n2nc(Cc3ccc(Cl)cc3)c3ccccc3c2=O)CC1 (centres unmarked) [Azelastine] was tested. Which activation at 10 µM (right anterior free wall) did it give?
Answer: The activation at 10 µM was 29%.

Question: And the activation at 10 µM [1]?
Answer: The activation at 10 µM was 50%.

Question: And the activation at 10 µM (left atrial myocardium; [4])?
Answer: Its activation at 10 µM is 40%.

Question: And the activation at 10 µM (left atrial myocardium; [5])?
Answer: The activation at 10 µM was 12%.

Question: And the activation at 10 µM (left atrial myocardium; [6])?
Answer: Its activation at 10 µM is 25%.

Question: And the activation at 10 µM [2, 5]?
Answer: Its activation at 10 µM is 9%.

Question: And the activation at 10 µM [2, 6]?
Answer: Its activation at 10 µM is 22%.

Question: What does the source list for O=c1c2ccccc2c(Cc2ccc(Cl)cc2)nn1C1CCCN(CCc2ccccc2)CC1 (centres unmarked)?
Answer: Analgesic effect in test model IRS (inflammation pain): 77%; Analgesic effect in test model IWRAC [3]: 91%

Question: O=c1c2ccccc2c(Cc2ccc(F)cc2)nn1C1CCCN(Cc2ccccc2)CC1 (centres unmarked) was tested. Which “Analgesic effect in test model IRS” value (inflammation pain) did it give?
Answer: The value was 53%.

Question: What about the “Analgesic effect in test model IWRAC” value [3] of the same compound?
Answer: Its value is 75%.

Question: Which results are given for O=c1c2ccccc2c(Cc2ccccc2Cl)nn1C1CCCN(CCc2ccccc2)CC1 (centres unmarked)?
Answer: ED50 (inflammation pain): 4.7 mg/kg; ED50 [3]: 4.1 mg/kg

Question: What does the source list for O=c1c2ccccc2c(Cc2ccccc2)nn1C1CN2CCC1CC2 (centres unmarked) [Phenyl 3-Chinuclidyl]?
Answer: ED50 (inflammation pain): 1.5 mg/kg; ED50 [3]: 3 mg/kg

Question: O=c1c2ccccc2c(Cc2ccc(F)cc2)nn1C1CCN(CCCc2ccccc2)CC1 was tested. Which “Analgesic effect in test model IRS” value (inflammation pain) did it give?
Answer: The value was 67%.

Question: And the “Analgesic effect in test model IWRAC” value [3]?
Answer: The value was 77%.

Question: For O=c1c2ccccc2c(Cc2ccco2)nn1C1CCCN(CCc2ccccc2)CC1 (centres unmarked), which “Analgesic effect in test model IRS” value (inflammation pain) is on record?
Answer: Its value is 40%.

Question: With CCOC(=O)CCN1CCC(n2nc(Cc3ccc(Cl)cc3)c3ccccc3c2=O)CC1 as the compound, how does the “Analgesic effect in test model IRS” value (inflammation pain) read?
Answer: Its value is 50%.

Question: And the “Analgesic effect in test model IWRAC” value [3]?
Answer: The value was 67%.

Question: What does the source list for O=c1c2ccccc2c(Cc2ccc(F)cc2)nn1C1CCN(CCCc2ccc(F)cc2)CC1?
Answer: Analgesic effect in test model IRS (inflammation pain): 52%; Analgesic effect in test model IWRAC [3]: 67%

Question: How did the “Analgesic effect in test model IRS” value (inflammation pain) turn out when O=c1c2ccccc2c(Cc2ccc(F)cc2)nn1C1CCCN(CCc2ccccc2)CC1 (centres unmarked) was run?
Answer: The value was 54%.

Question: And the ED50 [3]?
Answer: Its ED50 is 2.7 mg/kg.

Question: What does the source list for O=c1c2ccccc2c(Cc2ccc(F)cc2)nn1C1CN2CCC1CC2 (centres unmarked) [4-F-Phenyl 3-Chinuclidyl]?
Answer: ED50 (inflammation pain): 1.5 mg/kg; ED50 [3]: 4.6 mg/kg
